Ki data for 39 molecules are collected here from PMC8620791, “Inhibitory Effects of Sulfonamide Derivatives on the β-Carbonic Anhydrase (MpaCA) from Malassezia pachydermatis, a Commensal, Pathogenic Fungus Present in Domestic Animals” (International Journal of Molecular Sciences, 2021).

Assay [1] concerns the target MreCA. More on the design: method as in PMID 31963335. The settings on record: stopped-flow CO2 hydration; given for comparison; ref [26]; cited from earlier work.
In assay [2] the target is MgCA. More on the design: method as in PMID 31963335. Conditions: stopped-flow CO2 hydration; given for comparison; ref [26]; cited from earlier work.
Assay [3] has as its target T1, β-CA (MpaCA) from Malassezia pachydermatis (Malassezia pachydermatis, UniProt A0A0M8MPA4).
T1 sequence (A0A0M8MPA4 1-242): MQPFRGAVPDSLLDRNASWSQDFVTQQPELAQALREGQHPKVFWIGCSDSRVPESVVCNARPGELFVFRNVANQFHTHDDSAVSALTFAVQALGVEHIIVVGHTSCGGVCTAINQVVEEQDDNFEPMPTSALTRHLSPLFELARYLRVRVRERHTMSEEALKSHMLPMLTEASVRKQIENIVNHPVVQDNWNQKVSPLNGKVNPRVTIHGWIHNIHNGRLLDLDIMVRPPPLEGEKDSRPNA
Kind of assay: biochemical. Conditions: recombinant enzyme, stopped-flow CO2 hydration, mean from three assays, errors ±5–10%, 15 min preincubation.
Experimental: An applied photophysics stopped-flow instrument was used for assaying the CA-catalyzed CO2 hydration activity [49].
At least six measurements of the original 5–10% reaction were used to assess the initial velocity for each inhibitor. The uncatalyzed rates were identically determined and detracted from the total observed rates. Stock inhibitor solutions (10–100 mM) were prepared in distilled, deionized water, and dilutions up to 0.01 mM were performed with the buffer test. […] The inhibition constants, which represent the mean from at least three different determinations, were obtained by the non-linear least-squares methods using PRISM 6 and the Cheng–Prusoff equation, as reported earlier [50]. […] All salts/small molecules were of the highest purity available from Sigma-Aldrich (Milan, Italy).

The term Ki denotes the dissociation constant of the complex between target and ligand, obtained from inhibition or displacement. On to `NS(=O)(=O)c1cc(Cl)c(Cl)c(S(N)(=O)=O)c1` [DCP, Dichlorophenamide, reference compound], for which the Ki in assay [1] was 3.06 µM; in assay [2] it was 0.34 µM.

As to `CCN[C@H]1CN(CCCOC)S(=O)(=O)c2sc(S(N)(=O)=O)cc21` [BRZ, Brinzolamide, reference compound], the Ki in assay [3] was 0.55 µM; in assay [1] it was 0.7 µM; in assay [2] it was > 10 µM.

Turning to `NS(=O)(=O)c1cc(Cl)cc(Cl)c1O` [compound 10], the inhibition constant Ki is 2.01 µM in assay [3], > 10 µM in assay [1] and 0.54 µM in assay [2].

For the molecule `Nc1ccc(S(N)(=O)=O)cc1` [compound 2], the Ki in assay [1] was 4.62 µM; in assay [2], 0.24 µM.

Consider `Nc1cc(C(F)(F)F)c(S(N)(=O)=O)cc1S(N)(=O)=O` [compound 11], for which the inhibition constant (Ki) in assay [1] is 6.76 µM.

For the molecule `Nc1nccc(Nc2ccc(S(N)(=O)=O)cc2)n1` [compound 19], the inhibition constant Ki is 0.59 µM in assay [3], 7.79 µM in assay [1] and > 10 µM in assay [2].

Consider `NS(=O)(=O)c1ccc(S(=O)(=O)Nc2cccc3c(Cl)c[nH]c23)cc1` [IND, Indisulam E7070, reference compound], for which the Ki in assay [3] was 4.82 µM; in assay [1], < 1 µM.

As to `Nc1ccc(S(=O)(=O)Nc2nnc(S(N)(=O)=O)s2)cc1` [compound 20], the Ki in assay [3] was 0.61 µM; in assay [1] it was 0.91 µM; in assay [2] it was 0.23 µM.

Take `NS(=O)(=O)c1nnc(NS(=O)(=O)c2ccccc2)s1` [BZA, Benzolamide, reference compound]: the results for the Ki in assay [3] and in assay [1] were 0.12 µM and 7.15 µM, respectively.

As for `Cn1nc(S(N)(=O)=O)sc1=N` [compound 14], the results for the Ki in assay [3], in assay [1] and in assay [2] were 0.58 µM, > 10 µM and > 10 µM, respectively.

On to `Nc1ccc(S(=O)(=O)NCCc2ccc(S(N)(=O)=O)cc2)cc1` [compound 24], for which, in assay [3], the Ki is 1.27 µM.

Turning to `NS(=O)(=O)c1ccc(C(=O)O)cc1` [compound 18], the Ki is > 10 µM in assay [1] and 0.06 µM in assay [2].

Consider `Nc1ccc(S(N)(=O)=O)cc1Br` [compound 9], for which the Ki in assay [1] is > 10 µM; in assay [2] it was 0.34 µM.

Take `NS(=O)(=O)c1ccc(CCNS(=O)(=O)c2ccc([N+](=O)[O-])cc2CO)cc1` [compound 21]: the inhibition constant (Ki) in assay [3] was 0.27 µM; in assay [1], 7.4 µM; in assay [2], 0.11 µM.

In the case of `NS(=O)(=O)c1ccc(O)cc1` [compound 15], the inhibitory constant (Ki) in assay [3] was 0.61 µM; in assay [1], > 10 µM; in assay [2] it was 0.23 µM.

In the case of `Nc1ccc(S(N)(=O)=O)cc1F` [compound 7], the values for the inhibition constant (Ki) in assay [3], in assay [1] and in assay [2] were 2.48 µM, 4.59 µM and 0.11 µM, respectively.

On to `NCCc1ccc(S(N)(=O)=O)cc1` [compound 6], for which the Ki in assay [1] is > 10 µM.

Regarding `Nc1ccc(S(=O)(=O)Nc2ccc(S(N)(=O)=O)cc2)cc1` [compound 22], the figures for the inhibition constant (Ki) in assay [3], in assay [1] and in assay [2] were 1.37 µM, 3.74 µM and 0.09 µM, respectively.

Consider `Cc1ccc(-c2cc(C(F)(F)F)nn2-c2ccc(S(N)(=O)=O)cc2)cc1` [CLX, Celecoxib, reference compound], for which the results for the Ki in assay [3], in assay [1] and in assay [2] were 0.06 µM, 1.4 µM and > 10 µM, respectively.

Regarding `NS(=O)(=O)c1ccc(CO)cc1` [compound 16], the figures for the Ki in assay [3], in assay [1] and in assay [2] were 1.06 µM, 6.51 µM and 0.1 µM, respectively.

As for `NS(=O)(=O)c1ccc(CCO)cc1` [compound 17], the inhibition constant (Ki) was > 10 µM in assay [1] and 0.06 µM in assay [2].

In the case of `NS(=O)(=O)c1cc2c(cc1Cl)NCNS2(=O)=O` [HCT, Hydrochlorothiazide, reference compound], the Ki in assay [3] was 0.26 µM; in assay [1], 8.5 µM.

`Cc1onc(-c2ccccc2)c1-c1ccc(S(N)(=O)=O)cc1` [VLX, Valdecoxib, reference compound]: the inhibition constant Ki in assay [3] was 0.63 µM; in assay [1], 0.77 µM.

Turning to `O=C1NS(=O)(=O)c2ccccc21` [SAC, Saccharin, reference compound], the inhibition constant (Ki) in assay [3] stood at 1.03 µM.

With `Nc1ccc(S(N)(=O)=O)cc1Cl` [compound 8], the inhibitory constant (Ki) was 1.68 µM in assay [3], > 10 µM in assay [1] and 0.12 µM in assay [2].

As to `CCN1CCCC1CNC(=O)c1cc(S(N)(=O)=O)ccc1OC` (stereo not drawn) [SLP, Sulpiride, reference compound], in assay [1], the Ki was 4.85 µM.

Turning to `CC1(C)O[C@@H]2[C@@H](CO[C@@]3(COS(N)(=O)=O)OC(C)(C)O[C@@H]23)O1` [TPM, Topiramate, reference compound], the inhibition constant Ki is 0.48 µM in assay [3], 3.83 µM in assay [1] and 1.46 µM in assay [2].

In the case of `Nc1cc(Cl)c(S(N)(=O)=O)cc1S(N)(=O)=O` [compound 12], the Ki in assay [3] is 2.74 µM; in assay [1], > 10 µM.

`Nc1cccc(S(N)(=O)=O)c1` [compound 1]: in assay [3], the Ki is 1.99 µM.

Turning to `Nc1ccc(S(=O)(=O)NCc2ccc(S(N)(=O)=O)cc2)cc1` [compound 23], the Ki was 0.26 µM in assay [3], > 10 µM in assay [1] and > 10 µM in assay [2].

As to `Nc1nnc(S(N)(=O)=O)s1` [compound 13], the inhibition constant (Ki) in assay [3] amounted to 1.09 µM.

`NC(N)=Nc1nc(CSCCC(N)=NS(N)(=O)=O)cs1` [FAM, Famotidine, reference compound]: the inhibition constant Ki in assay [3] amounted to 4.91 µM.

As for `CC(=O)/N=c1/sc(S(N)(=O)=O)nn1C` [MZA, Methazolamide, reference compound], in assay [3], the inhibition constant (Ki) is 1.72 µM.

As for `Cc1ccc(S(N)(=O)=O)cc1` [compound 4], in assay [3], the Ki was determined as 1.09 µM.

For `NCc1ccc(S(N)(=O)=O)cc1` [compound 5], the results for the Ki in assay [3] and in assay [1] were 2.18 µM and > 10 µM, respectively.

As to `NS(=O)(=O)c1ccc(N2CCCCS2(=O)=O)cc1` [SLT, Sulthiame, reference compound], the inhibitory constant (Ki) in assay [3] was 1.88 µM; in assay [1], 0.67 µM.

As to `NS(=O)(=O)Cc1noc2ccccc12` [ZNS, Zonisamide, reference compound], the Ki in assay [3] worked out at 2.42 µM.

As to `NS(=O)(=O)c1cccc(S(N)(=O)=O)c1` [compound 3], the inhibition constant Ki in assay [3] is 1.5 µM; in assay [1], > 10 µM; in assay [2], 0.15 µM.

On to `NS(=O)(=O)NCCNc1nonc1C(=NO)Nc1ccc(F)c(Br)c1` [EPA, Epacadostat, reference compound], for which the Ki in assay [3] is 0.63 µM.
